In the NIST ThermoML archive (doi:10.1016/j.jct.2010.04.013):

Assay: mn = molality of the nth substance listed, in mol/kg
Conditions: 101 kPa, Liquid; for mass density: Vibrating tube method; for speed of sound: Pulse-echo method

[Ca+2].[O-][Cl+3]([O-])([O-])[O-].[O-][Cl+3]([O-])([O-])[O-] [calcium diperchlorate] + CO
Conditions | mass density, 283.15 K [kg/m3] | mass density, 288.15 K [kg/m3] | mass density, 293.15 K [kg/m3] | mass density, 298.15 K [kg/m3] | mass density, 303.15 K [kg/m3] | mass density, 308.15 K [kg/m3] | mass density, 313.15 K [kg/m3] | speed of sound, 298.15 K [m/s]
m1 = 0.04342 | 808.441 | 803.768 | 799.077 | 794.369 | 789.647 | 784.898 | 780.124 | 1107.2
m1 = 0.05807 | 811.094 | 806.419 | 801.722 | 797.014 | 792.292 | 787.544 | 782.768 | –
m1 = 0.07009 | 813.264 | 808.591 | 803.899 | 799.189 | 794.463 | 789.714 | 784.937 | 1110.9
m1 = 0.08408 | 815.804 | 811.129 | 806.432 | 801.724 | 796.994 | 792.241 | 787.454 | 1112.6
m1 = 0.09795 | 818.319 | 813.643 | 808.941 | 804.234 | 799.508 | 794.756 | 789.975 | 1114.4
m1 = 0.1113 | 820.755 | 816.078 | 811.379 | 806.668 | 801.938 | 797.181 | 792.393 | 1116.1
m1 = 0.1396 | 825.906 | 821.224 | 816.525 | 811.81 | 807.078 | 802.323 | 797.541 | 1119.6
m1 = 0.1663 | 830.829 | 826.145 | 821.443 | 816.722 | 811.986 | 807.224 | 802.43 | 1123
m1 = 0.1921 | 835.646 | 830.963 | 826.254 | 821.535 | 816.796 | 812.035 | 807.248 | 1126.7
m1 = 0.2177 | 840.443 | 835.754 | 831.044 | 826.321 | 821.577 | 816.812 | 812.023 | 1129.5
m1 = 0.2427 | 845.09 | 840.401 | 835.687 | 830.964 | 826.212 | 821.445 | 816.651 | 1132.9
m1 = 0.269 | 850.052 | 845.358 | 840.641 | 835.911 | 831.162 | 826.391 | 821.596 | 1136.3
